Test [1] addresses menin protein (Homo sapiens (Human), UniProt O00255). The test can be described thus: Fluorescence polarization (FP) competitive binding assay, menin binding affinity. The conditions noted are these: menin protein 4 nM, probe 2 nM, room temperature 30 minutes. The procedure: A fluorescence polarization (FP) competitive binding assay was used to determine the binding affinities of representative menin inhibitors. A FAM labeled fluorescent probe was designed and synthesized based on a MLL1 peptide (FAM-MM2). Equilibrium dissociation constant (Kd) value of FAM-MM2 to menin protein was determined from protein saturation experiments by monitoring the total fluorescence polarization of mixtures composed with the fluorescent probe at a fixed concentration and the protein with increasing concentrations up to full saturation. Serial dilutions of the protein were mixed with FAM-MM2 to a final volume of 200 μl in the assay buffer (PBS with 0.02% Bovine γ-Globulin and 4% DMSO. 0.01% Triton X-100 was added right before assays). Final FAM-MM2 concentration was 2 nM. Plates were incubated at room temperature for 30 minutes with gentle shaking to assure equilibrium. FP values in millipolarization units (mP) were measured using the Infinite M-1000 plate reader (Tecan U.S., Research Triangle Park, N.C.) in Microfluor 1 96-well, black, v-bottom plates (Thermo Scientific, Waltham, Mass.) at an excitation wavelength of 485 nm and an emission wavelength of 530 nm.
The IC50, see Table 3, of representative Compounds of the Disclosure were determined in a competitive binding experiment. Mixtures of 5 μl of the tested compounds in DMSO and 195 μl of preincubated protein/probe complex solution in the assay buffer were added into assay plates which were incubated at room temperature for 30 minutes with gentle shaking. Final concentration of the menin protein was 4 nM, and final probe concentration is 2 nM. Negative controls containing protein/probe complex only (equivalent to 0% inhibition), and positive controls containing only free probes (equivalent to 100% inhibition), were included in each assay plate. FP values were measured as described above. IC50 values were determined by nonlinear regression fitting of the competition curves.

In test [2] the test system is MV4-11. Put plainly: 7-day proliferation assay (WST-8), MV4-11. Type of test: cell-based. The conditions noted are these: Homo sapiens, 168 h; Table 5; MV4-11; 7 days; read-out: IC50 in cell growth inhibition. As to the method: (§1) The effect of representative Compounds of the Disclosure on cell viability was determined in a 7-day proliferation assay. Cells were maintained in the appropriate culture medium with 10% FBS at 37° C. and an atmosphere of 5% CO2.
(§2) Cells were seeded in 96-well flat bottom (Corning COSTAR, Corning, N.Y., cat #3595) at a density of 2,000-3,000 cells/well in 100 μl of culture medium. Compounds were serially diluted in the appropriate medium, and 100 μl of the diluted compounds were added to the appropriate wells of the cell plate. After the addition of compounds, the cells were incubated at 37° C. in an atmosphere of 5% CO2 for 7 days. Cell viability was determined using the WST (2-(2-methoxy-4-nitrophenyl)-3-(4-nitrophenyl)-5-(2,4-disulfophenyl)-2H-tetrazolium, monosodium salt) Cell Counting-8 Kit (Dojindo Molecular Technologies, Inc., Rockville, Md.) according to the manufacturers' instructions.
(§3) WST-8 reagent was added to each well at a final concentration of 10% (v/v), and then the plates were incubated at 37° C. for 1-2 hours for color development. The absorbance was measured at 450 nm using a SPECTRAmax PLUS plate reader (Molecular Devices, Sunnyvale, Calif.). The readings were normalized to the DMSO-treated cells and the half maximal inhibitory concentration (IC50) was calculated by nonlinear regression (four parameters sigmoid fitted with variable slope, least squares fit, and no constraint) analysis using the GraphPad Prism 5 software (GraphPad Software, La Jolla, Calif.).

Test [3] relates to MOLM13. The test can be described thus: 7-day proliferation assay (WST-8), MOLM13. Type of test: cell-based. The following applies: Homo sapiens, MOLM-13, 168 h; Table 5; MOLM13; 7 days; read-out: IC50 in cell growth inhibition. The procedure:
as §1, §2, §3
(Tetrazolium assays rely on reduction of a dye to a coloured formazan, in cell work by metabolically active cells.)

Where only a bound is given, the exact number is not on record here.

Sequence of menin protein (O00255 whole entry): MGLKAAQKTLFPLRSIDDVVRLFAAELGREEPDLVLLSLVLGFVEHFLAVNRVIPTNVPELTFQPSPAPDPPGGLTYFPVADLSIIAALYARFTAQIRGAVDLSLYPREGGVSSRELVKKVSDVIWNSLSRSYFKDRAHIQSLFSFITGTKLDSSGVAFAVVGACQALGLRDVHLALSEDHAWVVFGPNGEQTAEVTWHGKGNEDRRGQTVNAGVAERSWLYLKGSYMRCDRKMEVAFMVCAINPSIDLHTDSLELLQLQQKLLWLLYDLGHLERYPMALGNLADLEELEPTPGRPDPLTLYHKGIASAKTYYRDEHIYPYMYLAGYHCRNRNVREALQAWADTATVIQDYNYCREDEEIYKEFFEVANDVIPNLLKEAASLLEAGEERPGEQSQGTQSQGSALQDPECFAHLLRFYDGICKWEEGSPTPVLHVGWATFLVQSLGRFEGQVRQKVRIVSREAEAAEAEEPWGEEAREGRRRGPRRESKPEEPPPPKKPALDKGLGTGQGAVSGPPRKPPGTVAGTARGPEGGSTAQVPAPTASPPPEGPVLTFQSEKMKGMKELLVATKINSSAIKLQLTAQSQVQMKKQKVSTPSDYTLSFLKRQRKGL

Broadly, the IC50 is the concentration at which inhibition is half-maximal. For `C=CC(=O)N1CCC(S(=O)(=O)c2ccc(N3CC(CN4CCC([C@@](C#N)(c5cccc(F)c5)[C@H]5CCC[C@@H]5NC(=O)OC)CC4)C3)cc2)C1` (stereo partly drawn) [Cpd. No. 77, methyl ((1S,2R)-2-((1S)-(1-((1-(4-((1-acryloylpyrrolidin-3-yl)sulfonyl)phenyl)azetidin-3-yl)methyl)piperidin-4-yl)(cyano)(3-fluorophenyl)methyl)cyclopentyl)carbamate], the IC50 was determined as 11 nM in test [1], 91 nM in test [2] and 1220 nM in test [3]. As for `CCc1nccn1C[C@@](c1cccc(F)c1)(C1CCN(CC2CN(c3ccc(S(=O)(=O)C4CN(C(=O)/C=C/CN5CCCCC5)C4)cc3)C2)CC1)[C@H]1CCC[C@@H]1NC(=O)OC` [Cpd. No. 73, methyl ((1S,2R)-2-((S)-2-(2-ethyl-1H-imidazol-1-yl)-1-(3-fluorophenyl)-1-(1-((1-(4-((1-((E)-4-(piperidin-1-yl)but-2-enoyl)azetidin-3-yl)sulfonyl)phenyl)azetidin-3-yl)methyl)piperidin-4-yl)ethyl)cyclopentyl)carbamate], the IC50 in test [1] was determined as 2 nM; in test [2] it was 0.1 nM; in test [3], 6 nM. For `CCc1nccn1C[C@@](c1cccc(F)c1)(C1CCN(CC2CN(c3ccc(S(=O)(=O)C4CN(C(=O)/C=C/CN(C)C)C4)cc3)C2)CC1)[C@H]1CCC[C@@H]1NC(=O)OC` [Cpd. No. 67, methyl ((1S,2R)-2-((S)-1-(1-((1-(4-((1-((E)-4-(dimethylamino)but-2-enoyl)azetidin-3-yl)sulfonyl)phenyl)azetidin-3-yl)methyl)piperidin-4-yl)-2-(2-ethyl-1H-imidazol-1-yl)-1-(3-fluorophenyl)ethyl)cyclopentyl)carbamate], in that order: 2 nM, 6 nM and 31 nM. In the case of `COC(=O)N[C@H]1CCC[C@@H]1[C@](C#N)(c1cccc(F)c1)C1CCN(CC2CN(c3ccc(S(=O)(=O)C4CN(C(=O)/C=C/CN5CCCC5)C4)cc3)C2)CC1` [Cpd. No. 74, methyl ((1S,2R)-2-((S)-cyano(3-fluorophenyl)(1-((1-(4-((1-((E)-4-(pyrrolidin-1-yl)but-2-enoyl)azetidin-3-yl)sulfonyl)phenyl)azetidin-3-yl)methyl)piperidin-4-yl)methyl)cyclopentyl)carbamate], the IC50 in test [1] is 3 nM; in test [2], 2 nM; in test [3], 14 nM. With `COC(=O)N[C@H]1CCC[C@@H]1[C@@](C#N)(c1cccc(F)c1)C1CCN(CC2CN(c3ccc(S(=O)(=O)C4CN(C(=O)/C=C/CN(C)C)C4)cc3)C2)CC1` [Cpd. No. 60, methyl ((1S,2R)-2-((R)-cyano(1-((1-(4-((1-((E)-4-(dimethylamino)but-2-enoyl)azetidin-3-yl)sulfonyl)phenyl)azetidin-3-yl)methyl)piperidin-4-yl)(3-fluorophenyl)methyl)cyclopentyl)carbamate], the half-inhibitory concentration (IC50) was greater than 2000 nM in test [1], 525 nM in test [2] and 1400 nM in test [3]. As to `COC(=O)N[C@H]1CCC[C@@H]1[C@](C#N)(c1cccc(F)c1)C1CCN(CC2CN(c3ccc(S(=O)(=O)C4CN(C(=O)/C=C/CN5CCOCC5)C4)cc3)C2)CC1` [Cpd. No. 59, methyl ((1S,2R)-2-((S)-cyano(3-fluorophenyl)(1-((1-(4-((1-((E)-4-morpholinobut-2-enoyl)azetidin-3-yl)sulfonyl)phenyl)azetidin-3-yl)methyl)piperidin-4-yl)methyl)cyclopentyl)carbamate], in test [1], the IC50 is 4 nM. Consider `COC(=O)N[C@H]1CCC[C@@H]1[C@](C#N)(c1cccc(F)c1)C1CCN(CCCOc2ccc(S(=O)(=O)C3CN(C(=O)/C=C/CN(C)C)C3)cc2)CC1` [Cpd. No. 68, methyl ((1S,2R)-2-((S)-cyano(1-(3-(4-((1-((E)-4-(dimethylamino)but-2-enoyl)azetidin-3-yl)sulfonyl)phenoxy)propyl)piperidin-4-yl)(3-fluorophenyl)methyl)cyclopentyl)carbamate], for which the IC50 in test [1] is 7 nM. For the compound `C=CC(=O)Nc1cccc(S(=O)(=O)c2ccc(N3CC(F)(CN4CCC([C@@](Cn5ccnc5CC)(c5cccc(F)c5)[C@H]5CCC[C@@H]5NC(=O)OC)CC4)C3)cc2)c1` [Cpd. No. 9, methyl ((1S,2R)-2-((S)-1-(1-((1-(4-((3-acrylamidophenyl)sulfonyl)phenyl)-3-fluoroazetidin-3-yl)methyl)piperidin-4-yl)-2-(2-ethyl-1H-imidazol-1-yl)-1-(3-fluorophenyl)ethyl)cyclopentyl)carbamate], in test [1], the IC50 was 2 nM. On to `COC(=O)N[C@H]1CCC[C@@H]1[C@](C#N)(c1cccc(F)c1)C1CCN(CC2CN(c3ccc(S(=O)(=O)c4cccc(NC(=O)/C=C/CN5CCOCC5)c4)cc3)C2)CC1` [Cpd. No. 58, methyl ((1S,2R)-2-((S)-cyano(3-fluorophenyl)(1-((1-(4-((3-((E)-4-morpholinobut-2-enamido)phenyl)sulfonyl)phenyl)azetidin-3-yl)methyl)piperidin-4-yl)methyl)cyclopentyl)carbamate], for which, in test [1], the 50% inhibitory concentration (IC50) was 5 nM. Same read-out and setting: as for `C=CC(=O)N1CC(S(=O)(=O)c2ccc(OCCOc3ccc([C@](C#N)(c4cccc(F)c4)[C@H]4CCC[C@@H]4NC(=O)OC)cc3)cc2)C1` [Cpd. No. 65, methyl ((1S,2R)-2-((S)-(4-(2-(4-((1-acryloylazetidin-3-yl)sulfonyl)phenoxy)ethoxy)phenyl)(cyano)(3-fluorophenyl)methyl)cyclopentyl)carbamate], the figure is greater than 10000 nM.

On to `C=CC(=O)N1CCCC(S(=O)(=O)c2ccc(N3CC(CN4CCC([C@@](C#N)(c5cccc(F)c5)[C@H]5CCC[C@@H]5NC(=O)OC)CC4)C3)cc2)C1` (stereo partly drawn) [Cpd. No. 78, methyl ((1S,2R)-2-((1S)-(1-((1-(4-((1-acryloylpiperidin-3-yl)sulfonyl)phenyl)azetidin-3-yl)methyl)piperidin-4-yl)(cyano)(3-fluorophenyl)methyl)cyclopentyl)carbamate], for which the IC50 in test [1] came out at 10 nM; in test [2], 65 nM; in test [3] it was 291 nM. For the compound `C#CC(=O)N[C@H]1CCC[C@@H]1[C@](C#N)(c1cccc(F)c1)C1CCN(CC2CN(c3ccc(C#N)cc3)C2)CC1` [compound 82, N-((1S,2R)-2-((S)-cyano(1-((1-(4-cyanophenyl)azetidin-3-yl)methyl)piperidin-4-yl)(3-fluorophenyl)methyl)cyclopentyl)propiolamide], the half-inhibitory concentration (IC50) in test [1] is 4 nM. On the same count and under the same terms, as for `C=CC(=O)Nc1cccc(S(=O)(=O)c2ccc(N3CC(CN4CCC([C@](C#N)(c5cccc(F)c5)[C@H]5CCC[C@@H]5NC(=O)OC)CC4)C3)cc2)c1` [Cpd. No. 70, methyl ((1S,2R)-2-((R)-(1-((1-(4-((3-acrylamidophenyl)sulfonyl)phenyl)azetidin-3-yl)methyl)piperidin-4-yl)(cyano)(3-fluorophenyl)methyl)cyclopentyl)carbamate], the figure is greater than 10000 nM.

Take `C=CC(=O)N1CC(S(=O)(=O)c2ccc(N3CC(CN4CCC([C@](C#N)(c5cccc(F)c5)[C@H]5CCC[C@@H]5OC(=O)NC)CC4)C3)cc2)C1` [Cpd. No. 2, (1S,2R)-2-((R)-(1-((1-(4-((1-acryloylazetidin-3-yl)sulfonyl)phenyl)azetidin-3-yl)methyl)piperidin-4-yl)(cyano)(3-fluorophenyl)methyl)cyclopentyl methylcarbamate]: in test [1], the IC50 came out at 374 nM.

Values taken from patent US11045448B2, “Piperidines as covalent menin inhibitors” (THE REGENTS OF THE UNIVERSITY OF MICHIGAN, priority 2017, dated 2021).
